# From ChEMBL document CHEMBL5385929, “Tabersonine Enhances Olaparib Sensitivity through FHL1-Mediated Epithelial-Mesenchymal Transition in an Ovarian Tumor” (J Nat Prod, 2024)
# The source made the active and inactive calls. The calls are words filed in the database; no cut-off is given here.
# How the values were obtained:
# A2780 [1] = test: Downregulation of EMT signalling in human A2780 cells transfected with shFHL1-2 RNA assessed as E-cadherin protein expression at 10 uM by western blot analysis; type: functional, cell-based
# A2780 [2] = test: Downregulation of EMT signalling in human A2780 cells transfected with shFHL1-2 RNA assessed as N-cadherin protein expression at 10 uM by western blot analysis; type: functional, cell-based
# A2780 [3] = test: Potentiation of olaparib-induced antitumor activity against shFHL1-1 RNA-transfected human A2780 cells xenografted in BALB/c mouse assessed as decrease in lung metastatic nodules at 15 mg/kg, ip co-administered with olaparib every other day from day 6 of tumor cell inoculation and measured on day 30 post-tumor cell inoculation by H and E staining based bright field microscopic analysis; type: functional, organism-based; conditions: time 24.0 day
# Mus musculus [4] = test: Potentiation of olaparib sensitivity in BALB/c mouse xenografted with shNC RNA-transfected human A2780 cells assessed as upregulation of FHL1 protein expression in tumor at 15 mg/kg, ip co-administered with olaparib for 2 weeks by western blot analysis; type: functional, organism-based
# SK-OV-3 [5] = test: Downregulation of EMT signalling in human SK-OV-3 cells transfected with shFHL1-2 RNA assessed as vimentin protein expression at 10 uM by western blot analysis; type: functional, cell-based
# A2780 [6] = test: Potentiation of olaparib sensitivity in human A2780 cells assessed as inhibition of colony formation at 10 uM incubated for 48 hrs in presence of olaparib followed by drug wash-out and incubated in fresh medium for 2 weeks by crystal violet staining based analysis; type: functional, cell-based
# SK-OV-3 [7] = test: Potentiation of olaparib sensitivity in human SK-OV-3 cells assessed as inhibition of cell invasion at 10 uM measured after 48 hrs in presence of olaparib by Transwell assay; type: functional, cell-based
# SK-OV-3 [8] = test: Synergistic antiproliferative activity against human SK-OV-3 cells assessed as combination index for reduction of cell viability in presence of olaparib by CCK8 assay; type: functional
# A2780 [9] = test: Inhibition of cell invasion in human A2780 cells transfected with shFHL1-2 RNA at 10 uM measured after 48 hrs by Transwell assay; type: functional, cell-based
# A2780 [10] = test: Potentiation of olaparib-induced antitumor activity against human A2780 cells xenografted in BALB/c mouse assessed as decrease in tumor volume at 15 mg/kg, ip co-administered with olaparib for 2 weeks; type: functional, organism-based
# SK-OV-3 [11] = test: Potentiation of olaparib sensitivity in human SK-OV-3 cells transfected with shFLH1-2 RNA assessed as downregulation of EMT signaling by measuring N-cadherin protein expression at 10 uM in presence of olaparib by western blot analysis; type: functional, cell-based
# SK-OV-3 [12] = test: Potentiation of olaparib sensitivity in human SK-OV-3 cells transfected with shFHL1-2 RNA assessed as inhibition of cell invasion at 10 uM measured after 48 hrs in presence of olaparib by Transwell assay; type: functional, cell-based
# SK-OV-3 [13] = test: Downregulation of EMT signalling in human SK-OV-3 cells transfected with shFHL1-1 RNA assessed as E-cadherin protein expression at 10 uM by western blot analysis; type: functional, cell-based
# A2780 [14] = test: Potentiation of olaparib sensitivity in human A2780 cells assessed as inhibition of cell migration at 10 uM measured after 24 to 48 hrs in presence of olaparib by wound healing assay; type: functional, cell-based; conditions: time 24-48 hrs
# [15] = Toxicity in BALB/c mouse xenografted with human A2780 cells assessed as decrease in body weight at 30 mg/kg, ip administered every other day and measured on day 6; type: organism-based; conditions: in vivo, 144 h, time 6 day
# SK-OV-3 [16] = test: Potentiation of olaparib sensitivity in human SK-OV-3 cells transfected with shFLH1-2 RNA assessed as downregulation of EMT signaling by measuring vimentin protein expression at 10 uM in presence of olaparib by western blot analysis; type: functional, cell-based
# A2780 [17] = test: Potentiation of olaparib sensitivity in human A2780 cells assessed as downregulation of EMT signaling by measuring upregulation of E-cadherin protein expression at 10 uM in presence of olaparib by western blot analysis; type: functional, cell-based
# SK-OV-3 [18] = test: Potentiation of olaparib sensitivity in human SK-OV-3 cells assessed as induction of DNA damage response by measuring increase in tail moment at 10 uM measured after 48 hrs in presence of olaparib by alkaline comet assay; type: functional, cell-based
# A2780 [19] = test: Inhibition of cell invasion in human A2780 cells at 10 uM measured after 48 hrs by Transwell assay; type: functional, cell-based
# A2780 [20] = test: Potentiation of olaparib sensitivity in human A2780 cells transfected with shFLH1-2 RNA assessed as downregulation of EMT signaling by measuring E-cadherin protein expression at 10 uM in presence of olaparib by western blot analysis; type: functional, cell-based
# A2780 [21] = test: Inhibition of cell invasion in human A2780 cells transfected with shFHL1-1 RNA at 10 uM measured after 48 hrs by Transwell assay; type: functional, cell-based
# A2780 [22] = test: Downregulation of EMT signalling in human A2780 cells assessed as downregulation of N-cadherin protein expression at 10 uM by western blot analysis; type: functional, cell-based
# SK-OV-3 [23] = test: Inhibition of cell migration in human SK-OV-3 cells at 10 uM measured after 24 to 48 hrs by wound healing assay; type: functional, cell-based; conditions: time 24-48 hrs
# SK-OV-3 [24] = test: Potentiation of olaparib sensitivity in human SK-OV-3 cells assessed as inhibition of cell viability at 10 uM measured after 5 days in presence of olaparib by CCK8 assay; type: functional, cell-based; conditions: time 5.0 day
# A2780 [25] = test: Potentiation of olaparib-induced antitumor activity against shFHL1-1 RNA-transfected human A2780 cells xenografted in BALB/c mouse assessed as decrease in tumor weight at 15 mg/kg, ip co-administered with olaparib for 2 weeks; type: functional, organism-based
# A2780 [26] = test: Downregulation of EMT signalling in human A2780 cells transfected with shFHL1-1 RNA assessed as E-cadherin protein expression at 10 uM by western blot analysis; type: functional, cell-based
# SK-OV-3 [27] = test: Effect on FHL1 mRNA expression in human SK-OV-3 cells at 5 to 20 uM by real-time PCR analysis; type: functional, cell-based; conditions: dose 5-20 µM
# Mus musculus [28] = test: Potentiation of olaparib sensitivity in BALB/c mouse xenografted with shFHL1-1 RNA-transfected human A2780 cells assessed as downregulation of N-cadherin protein expression in tumor at 15 mg/kg, ip co-administered with olaparib for 2 weeks by western blot analysis; type: functional, organism-based
# A2780 [29] = test: Potentiation of olaparib-induced antitumor activity against shFHL1-1 RNA-transfected human A2780 cells xenografted in BALB/c mouse assessed as decrease in tumor volume at 15 mg/kg, ip co-administered with olaparib for 2 weeks; type: functional, organism-based
# A2780 [30] = test: Inhibition of cell migration in human A2780 cells transfected with shFHL1-2 RNA at 10 uM measured after 24 to 48 hrs by wound healing assay; type: functional, cell-based; conditions: time 24-48 hrs
# A2780 [31] = test: Inhibition of cell migration in human A2780 cells at 10 uM measured after 24 to 48 hrs by wound healing assay; type: functional, cell-based; conditions: time 24-48 hrs
# [32] = Toxicity in BALB/c mouse xenografted with human A2780 cells assessed as effect on body weight at 15 mg/kg, ip co-administered with olaparib for 2 weeks; type: organism-based; conditions: in vivo, 336 h
# SK-OV-3 [33] = test: Potentiation of olaparib sensitivity in human SK-OV-3 cells assessed as downregulation of EMT signaling by measuring downregulation of N-cadherin protein expression at 10 uM in presence of olaparib by western blot analysis; type: functional, cell-based
compound,measurement,setting,value
CC[C@]12C=CCN3CC[C@]4(C(=C(C(=O)OC)C1)Nc1ccccc14)[C@@H]32 [TABERSONINE],inhibition,A2780 [1],inactive
same,inhibition,A2780 [2],inactive
same,Activity,A2780 [3],inactive
same,Activity,Mus musculus [4],Active
same,inhibition,SK-OV-3 [5],inactive
same,Activity,A2780 [6],Active
same,Activity,SK-OV-3 [7],Active
same,CI,SK-OV-3 [8],<1
same,inhibition,A2780 [9],inactive
same,Activity,A2780 [10],Active
same,Activity,SK-OV-3 [11],inactive
same,Activity,SK-OV-3 [12],inactive
same,inhibition,SK-OV-3 [13],inactive
same,Activity,A2780 [14],Active
same,Activity,[15],Toxic
same,Activity,SK-OV-3 [16],inactive
same,Activity,A2780 [17],Active
same,Activity,SK-OV-3 [18],Active
same,inhibition,A2780 [19],Active
same,Activity,A2780 [20],inactive
same,inhibition,A2780 [21],inactive
same,inhibition,A2780 [22],Active
same,inhibition,SK-OV-3 [23],Active
same,Activity,SK-OV-3 [24],Active
same,Activity,A2780 [25],inactive
same,inhibition,A2780 [26],inactive
same,Activity,SK-OV-3 [27],inactive
same,Activity,Mus musculus [28],inactive
same,Activity,A2780 [29],inactive
same,inhibition,A2780 [30],inactive
same,inhibition,A2780 [31],Active
same,Activity,[32],Non-Toxic
same,Activity,SK-OV-3 [33],Active
